According to patent publication US4874779A, “Mitomycin phosphate derivatives” (priority 1988, dated 1989):
Where a name gives a salt, the structure may show the parent alone. Read-outs that look alike come from different tables or passages of the source.

Tests used:
[1] = test system: human lung tumor cell line H2981; assay: Cytotoxicity to H2981 cells by inhibition of 3H-Thy incorporation; format: cell-based; conditions: for cytotoxic activity (in words): without alkaline phosphatase pre-treatment; for IC50: Homo sapiens
Description: Cytotoxicity of compounds V, IIa, and mitomycin C was determined using human lung tumor cell line H2981. Thus a suspension of H2981 cells in Iscove's medium (IMDM) containing 10% fetal calf serum were plated into 96-well microtiter plates (10,000 cells/well). After 1 hr, the medium was removed, a pH 7.2 phosphate buffered saline solution (PBS) of the drug was added, and incubation at 37° C. was commenced for 1 hour. The cells were then washed twice, and incubation was continued an additional 17 hours, followed by a 6 hour pulse with ^3 H-Thy (1.0 μCi/well). The plates were frozen at -70° C. to detach the cells, and the cells were harvested onto glass fiber discs. The filters were counted on a Beckman 3701 scintillation counter. Inhibition of ^3 H-Thy incorporation was used as an indicator for cytotoxic effects.

[2] = test system: human lung tumor H2981; assay: Antitumor activity against subcutaneous human lung tumor H2981 xenograft in Balb C nu/nu female mice; format: in vivo; conditions: for time required to reach an average tumor volume of 750 mm^3: IIa 0.2 ml of 1 mg/ml, V 0.2 ml of 3 mg/ml, i.p. days 15, 21, 31, 37, untreated control 27 days
Description: The arrows indicate the days on which drugs were given.
Antitumor activity of the compound of Example 1 (V) was evaluated in Balb C nu/nu female mice (4-6 weeks old, purchased from Life Sciences, St. Petersburg, Fl) implanted subcutaneously with a xenograft of human lung tumor H2981 in the right hind flank. Compound IIa served as positive control. Drug treatment was initiated on day 15 (day 0 being the day of tumor implant) when the tumors were approximately 100 mm^3 in volume. 0.2 Ml of the test compounds (1 mg/ml for IIa and 3 mg/ml for V in phosphate-buffered saline) were injected intraperitoneally on days 15, 21, 31, and 37. The results are graphically shown in FIG. 1 and indicate that the time required to reach an average tumor volume of 750 mm^3 was 45 days in mice treated with IIa, 63 days in mice treated with V, and 27 days in the untreated control group.

[3] = Relative toxicity in Balb C nu/nu mice; format: in vivo; conditions: for LD50 / MTD at 600 h: mouse, in vivo, ip; for LD50: two equal doses spaced 4 days apart; for MTD at 600 h: 4 equal doses over a 25 day period, read-out: total amount tolerated
Description: The relative toxicities of IIa and V were determined in Balb C nu/nu mice. […] Total amounts of up to 40 mg/kg of IIa and 100 mg/kg of V were tolerated if given in 4 equal doses over a 25 day period.

SMILES | cytotoxicity after pre-treatment with alkaline phosphatase (in words) ([1]; H2981 cells, V pre-treated with alkaline phosphatase) | cytotoxic activity (in words) ([1]; H2981 cells) | antitumor effect compared with the corresponding alcohol (IIa) ([2]; H2981 xenograft, i.p.) | time required to reach an average tumor volume of 750 mm^3 [2] [days] | LD50 [3] [mg/kg] | MTD at 600 h [3] [mg/kg] | tolerability of prodrug (in words) ([3]; relative to IIa) | IC50 ([1]; H2981, 1 h, pH 7.2, read-out: IC50 (cytotoxicity, inhibition of 3H-Thy incorporation)) [nM] | IC50 ([1]; H2981 cells, 1 hour drug exposure in pH 7.2 PBS at 37° C., 17 hours further incubation, 6 hour 3H-Thy pulse, read-out: IC50 (cytotoxicity, inhibition of 3H-Thy incorporation)) [nM]
COC12C(COC(N)=O)C3=C(C(=O)C(C)=C(NCCOP(=O)(O)O)C3=O)N1CC1NC12 (centres unmarked) [Example 1, 9a-Methoxy-7-[[(phosphonooxy)ethyl]amino]mitosane disodium salt] | cytotoxicity comparable to that of IIa and mitomycin C | A small amount of cytotoxic activity | stronger antitumor effect than the corresponding alcohol | 63 | 90 | ≤ 100 | significantly more prodrug was tolerated because of its reduced toxicity | – | –
COC12C(COC(N)=O)C3=C(C(=O)C(C)=C(NCCO)C3=O)N1CC1NC12 (centres unmarked) [IIa] | – | highly cytotoxic | – | 45 | 45 | ≥ 40 | – | ~1000 | –
CO[C@@]12[C@H](COC(N)=O)C3=C(C(=O)C(C)=C(N)C3=O)N1C[C@@H]1N[C@@H]12 [mitomycin C] | – | highly cytotoxic | – | – | – | – | – | – | ~1000
